According to EP3628659A1, “SELENOESTER-CONTAINING COMPOUNDS FOR USE IN THE TREATMENT OF MICROBIAL INFECTIONS OR COLORECTAL CANCER” (Consejo Superior De Investigaciones Científicas, priority 2018, dated 2020):

Experiments:
Steinernema feltiae = test: Nematicidal activity (viability count), Steinernema feltiae; type: in vivo; settings: IC50 class, tested at 50, 100, 150 and 200 µM, viability at 24 h
Experimental: (§1) The compounds were tested for their antifungal and nematicidal properties against the fungi Candida albicans and Saccharomyces cerevisiae, and against the nematode Steinernema feltiae.
The soil nematodes S. feltiae were purchased from Sautter and Stepper GmbH (Ammerbuch, Germany) and stored at 4 °C in the dark. Before each experiment, fresh samples of nematodes were purchased and stored in the fridge upon arrival and used for a maximum of six days. To perform the assay, 200 mg of nematodes was reconstituted in 50 mL of phosphate buffered saline (PBS) (pH = 7.4) to form a homogenous suspension to revive the nematodes. Afterwards, the individual suspensions were allowed to rest at room temperature. The sedimentation was avoided with occasional shaking in moderate light and at room temperature (25 °C) for 30 min. Viability of the nematodes was determined by counting the live and dead nematodes under a light microscope (TR 200, VWR International, Leuven, Belgium) at four-fold magnification. An initial viability value of more than 90 percent was considered necessary to perform the experiments.
Sample solutions were added into the wells of a 96-well plate to achieve at final concentrations of 50,100, 150, and 200 µM. Afterwards, 10 µL of nematode suspension was added to each well and the final volume in each well was adjusted to 100 µL with phosphate buffered saline (PBS) (pH = 7.4). PBS was used in the negative control and ethanol in the positive control. Viability was determined at 0 h and 24 h by counting the live and dead nematodes, whereby 50 µL of lukewarm water (40 °C) were added to each well to stimulate the nematodes for the 24 h reading. Each experiment was performed independently in triplicate and on three different occasions (n = 9).
(§2) For the three organisms considered (C. albicans, S. cerevisiae and S. feltiae), the inhibitory concentration 50% (IC50) is defined as the concentration that inhibits the viability of the respective organism to a 50% of the viability determined for the negative control.

[1] = system: Colo 320/MDR-LRP multidrug resistant overexpressing ABCB1 (MDR1)-LRP; test: cells; type: cell-based, human; settings: Homo sapiens, 24 h, read-out: Colo 320 Cytotoxicity
Experimental: (§3) Cytotoxicity assays in human colonic adenocarcinoma cell lines Colo 205 doxorubicin-sensitive (ATCC-CCL-222) and Colo 320/MDR-LRP multidrug resistant overexpressing ABCB1 (MDR1)-LRP (ATCC-CCL-220.1) were performed following the procedure described by Gajdács et al, 2017, Bioorg Med Chem Lett. 27(4): 797-802. The effects of increasing concentrations of selenium compounds on cell growth were tested in 96-well flat-bottomed microtiter plates. The selectivity of the action towards cancer cells was assessed through the evaluation of cytotoxic activity in a non-tumoral cell line, the MRC-5 human embryonal lung fibroblast cell lines (ATCC CCL-171), as described in Gajdács et al, 2017, Bioorg Med Chem Lett. 27(4): 797-802.
(§4) All cell lines were purchased from LGC Promochem, Teddington, UK. The colonic cells were cultured in RPMI 1640 medium supplemented with 10% heat-inactivated fetal bovine serum, 2 mM L-glutamine, 1 mM Na-pyruvate and 100 mM Hepes. The cell lines were incubated at 37°C, in a 5% CO2, 95% air atmosphere. The semi-adherent human colon cancer cells were detached with Trypsin-Versene (EDTA) solution for 5 min at 37°C. Alternatively, MRC-5 cells was cultured in Eagle's Minimal Essential Medium (EMEM, containing 4.5 g/L glucose) supplemented with a non-essential amino acid mixture, a selection of vitamins and 10% heat-inactivated fetal bovine serum. The cell lines were incubated at 37°C, in a 5% CO2, 95% air atmosphere.
(§5) The compounds were diluted in a volume of 100 µL of medium. The two-fold serial dilutions of selenocompounds were prepared in 100 µL of RPMI 1640, horizontally. The semi-adherent colonic adenocarcinoma cells were treated with Trypsin-Versene (EDTA) solution. They were adjusted to a density of 2×10^4 cells in 100 µL of RPMI 1640 medium, and were added to each well, with the exception of the medium control wells. The final volume of the wells containing selenocompounds and cells was 200 µL.
(§6) The culture plates were incubated at 37°C for 24 h; at the end of the incubation period, 20 µL of MTT (thiazolyl blue tetrazolium bromide, Sigma) solution (from a stock solution of 5 mg/mL) were added to each well. After incubation at 37°C for 4 h, 100 µL of sodium dodecyl sulfate (SDS) (Sigma) solution (10% in 0.01 M HCI) were added to each well and the plates were further incubated at 37°C overnight. Cell growth was determined by measuring the optical density (OD) at 540/630 nm with Multiscan EX ELISA reader (Thermo Labsystems, Cheshire, WA, USA). Inhibition of the cell growth was determined according to the formula below: […] = 100−[(OD sample−OD medium control)/(OD cell control−OD medium control)] × 100 [formula]
(§7) Results are expressed in terms of IC50, defined as the inhibitory dose that reduces the growth of the cells exposed to the tested compounds by 50%. Regarding the selectivity, the selectivity indexes (SI) were calculate, being SI the quotient of the IC50 in non-tumoral cells (MRC-5) and the respective cancer cell (Colo-205 or Colo-320). Compound is considered moderately selective when SI < 6 and ≥ 3; and strongly selective when SI ≥ 6.

[2] = system: Colo 205 doxorubicin-sensitive; test: Cytotoxicity assay (MTT) in Colo 205 cells; type: cell-based, human; settings: Homo sapiens, COLO 205, 24 h, read-out: Colo 205 Cytotoxicity
Experimental: as §3, §4, §5, §6, §7

Saccharomyces cerevisiae = test: Antifungal activity (optical density), Saccharomyces cerevisiae; type: cell-based; settings: read-out: Antifungal activity Saccharomyces cerevisiae, IC50 class, tested at 50, 100, 150 and 200 µM, OD 570 nm, 37 °C, read-out: Antifungal activity Streptomyces cerevisiae
Experimental: as §1
(§8) Fungal cell densities were determined by measuring the optical density (OD) at 570 nm at 0 h (first measurement immediately after incubation), 4 h, and 24 h after incubation at 37 °C; and using a Universal Microplate Reader, EL800, Biotech Instruments, Inc. Highland Park, Winooski, VT, USA. Compounds were dissolved in 1% DMSO and were tested at final concentrations of 50, 100, 150, and 200 µM. Nutrient Sabouraud Dextrose (SD), and Yeast Peptone Dextrose (YPD) were used as media for C. albicans, and S. cerevisiae, respectively. Ketoconazole was used as the positive control for C. albicans and S. cerevisiae. The growth culture with medium for each organism was used as the negative control. The Solvent 1% DMSO stock was used as a solvent control. All experiments were carried out in triplicate and on three different occasions (n = 9).
as §2

Candida albicans = test: Antifungal activity (optical density), Candida albicans; type: cell-based; settings: IC50 class, tested at 50, 100, 150 and 200 µM, OD 570 nm, 37 °C
Experimental: as §1, §8, §2

N#CC[Se]C(=O)c1ccc(Cl)cc1Cl [Compound 13, Se-(cyanomethyl) 2,4-dichlorobenzoselenoate]
IC50 (Steinernema feltiae): 10 to 50 µM
IC50 [1]: 1 to 10 µM
IC50 [2]: 1 to 10 µM
IC50 (Saccharomyces cerevisiae): > 100 µM
IC50 (Candida albicans): 10 to 50 µM

N#CC[Se]C(=O)c1ccccc1 [Compound 6, Se-(cyanomethyl) benzoselenoate]
IC50 (Steinernema feltiae): 10 to 50 µM
IC50 [1]: 1 to 10 µM
IC50 [2]: 1 to 10 µM
IC50 (Saccharomyces cerevisiae): > 100 µM
IC50 (Candida albicans): 10 to 50 µM

N#CCC[Se]C(=O)c1ccc(Cl)cc1Cl [Compound 14, Se-(cyanoethyl) 2,4-dichlorobenzoselenoate]
IC50 (Steinernema feltiae): 10 to 50 µM
IC50 [1]: 1 to 10 µM
IC50 [2]: 1 to 10 µM
IC50 (Saccharomyces cerevisiae): 50 to 100 µM
IC50 (Candida albicans): > 100 µM

CC(C)(C)c1ccc(C(=O)[Se]CC#N)cc1 [Compound 10, Se-(cyanomethyl) 4-tert-butylbenzoselenoate]
IC50 (Steinernema feltiae): > 100 µM
IC50 [1]: 1 to 10 µM
IC50 [2]: 1 to 10 µM
IC50 (Saccharomyces cerevisiae): > 100 µM
IC50 (Candida albicans): 10 to 50 µM

CC(=O)Oc1ccccc1C(=O)[Se]CC#N [Compound 17, Se-(cyanomethyl) 2-acetoxybenzoselenoate]
IC50 (Steinernema feltiae): 10 to 50 µM
IC50 [1]: 1 to 10 µM
IC50 [2]: < 1 µM
IC50 (Saccharomyces cerevisiae): 10 to 50 µM
IC50 (Candida albicans): 10 to 50 µM

N#CC[Se]C(=O)c1ccc(Cl)c(Cl)c1 [Compound 15, Se-(cyanomethyl) 3,4-dichlorobenzoselenoate]
IC50 (Steinernema feltiae): > 100 µM
IC50 [1]: 1 to 10 µM
IC50 [2]: 1 to 10 µM
IC50 (Saccharomyces cerevisiae): > 100 µM
IC50 (Candida albicans): 10 to 50 µM

Cc1ccc(C(=O)[Se]CCCC#N)cc1 [Compound 9, Se-(cyanopropyl) 4-methylbenzoselenoate]
IC50 (Steinernema feltiae): 50 to 100 µM
IC50 [1]: 1 to 10 µM
IC50 [2]: 1 to 10 µM
IC50 (Saccharomyces cerevisiae): > 100 µM
IC50 (Candida albicans): 50 to 100 µM

N#CCC[Se]C(=O)c1ccc(Cl)cc1 [Compound 4, Se-(cyanoethyl) 4-chlorobenzoselenoate]
IC50 (Steinernema feltiae): 10 to 50 µM
IC50 [1]: 1 to 10 µM
IC50 [2]: 1 to 10 µM
IC50 (Saccharomyces cerevisiae): 50 to 100 µM
IC50 (Candida albicans): > 100 µM

N#CCCC[Se]C(=O)c1ccc(Cl)cc1 [Compound 5, Se-(cyanopropyl) 4-chlorobenzoselenoate]
IC50 (Steinernema feltiae): 1 to 10 µM
IC50 [1]: 1 to 10 µM
IC50 [2]: 1 to 10 µM
IC50 (Saccharomyces cerevisiae): > 100 µM
IC50 (Candida albicans): 10 to 50 µM

N#CC[Se]C(=O)c1ccc(F)cc1 [Compound 1, Se-(cyanomethyl) 4-fluorobenzoselenoate]
IC50 (Steinernema feltiae): 50 to 100 µM
IC50 [1]: 1 to 10 µM
IC50 [2]: 1 to 10 µM
IC50 (Saccharomyces cerevisiae): > 100 µM
IC50 (Candida albicans): 10 to 50 µM

Cc1ccc(C(=O)[Se]CC#N)cc1 [Compound 7, Se-(cyanomethyl) 4-methylbenzoselenoate]
IC50 (Steinernema feltiae): 1 to 10 µM
IC50 [1]: 1 to 10 µM
IC50 [2]: 1 to 10 µM
IC50 (Saccharomyces cerevisiae): > 100 µM
IC50 (Candida albicans): 10 to 50 µM

N#CC[Se]C(=O)Cc1ccccc1 [Compound 11, Se-(cyanomethyl) 2-phenylethaneselenoate]
IC50 (Steinernema feltiae): 50 to 100 µM
IC50 [1]: < 1 µM
IC50 [2]: < 1 µM
IC50 (Saccharomyces cerevisiae): > 100 µM
IC50 (Candida albicans): 10 to 50 µM

Cc1ccc(C(=O)[Se]CCC#N)cc1 [Compound 8, Se-(cyanoethyl) 4-methylbenzoselenoate]
IC50 (Steinernema feltiae): 10 to 50 µM
IC50 [1]: 1 to 10 µM
IC50 [2]: 1 to 10 µM
IC50 (Saccharomyces cerevisiae): 50 to 100 µM
IC50 (Candida albicans): > 100 µM

N#CC[Se]C(=O)c1ccc(Cl)cc1 [Compound 3, Se-(cyanomethyl) 4-chlorobenzoselenoate]
IC50 (Steinernema feltiae): 10 to 50 µM
IC50 [1]: 1 to 10 µM
IC50 [2]: < 1 µM
IC50 (Saccharomyces cerevisiae): > 100 µM
IC50 (Candida albicans): 10 to 50 µM
